Test results: US20040214270A1, “Isocitrate dehydrogenase, gene thereof, and use of the same in the treatment of obesity, hyperlipidemia, and fattly liver in lipid biosynthesis” (priority 2000, published 2004)
“Also recorded” adds a separate entry of the source. One block for each compound: values may come before it.

Legend:
isocitrate dehydrogenase = isocitrate dehydrogenase (Mus musculus, UniProt O88844); experiment: Screening of inhibitors against isocitrate dehydrogenase (spectrophotometry, absorbance at 340 nm); type: biochemical; conditions: change in absorbance at 340 nm with time, 25° C.
Sequence of isocitrate dehydrogenase (O88844 whole entry): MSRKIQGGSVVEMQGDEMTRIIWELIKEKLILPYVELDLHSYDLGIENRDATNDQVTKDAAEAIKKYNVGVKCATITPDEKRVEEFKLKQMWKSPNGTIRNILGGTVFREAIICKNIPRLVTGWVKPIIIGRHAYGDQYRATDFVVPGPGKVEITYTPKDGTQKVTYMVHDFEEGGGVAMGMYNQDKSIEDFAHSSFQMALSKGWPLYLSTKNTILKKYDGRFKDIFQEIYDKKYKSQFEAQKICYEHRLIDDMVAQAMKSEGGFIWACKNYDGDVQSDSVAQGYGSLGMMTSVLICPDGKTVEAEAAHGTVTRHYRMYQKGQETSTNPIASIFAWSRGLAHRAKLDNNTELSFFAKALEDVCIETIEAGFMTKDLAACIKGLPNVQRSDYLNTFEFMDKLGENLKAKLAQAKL
Protocol: In this connection, spectrophotometry is very useful. In more detail, first, a spectrophotometer is adjusted to zero absorbance at 340 nm using a mixture of a ten-fold concentrated reaction buffer plus 3rd distilled water. After a crystal cuvette containing the 10× buffer, a test sample and 3rd distilled water is installed in the spectrophotometer, isocitrate dehydrogenase is added to the cuvette and a measurement is made of the change in absorbance at 340 nm with time.
Because an absorbance decreases faster in the cuvette containing a greater concentration of a sample inhibitory against the activity of the enzyme, the analysis of the spectrophotometric data enables the screening of inhibitors of isocitrate dehydrogenase.
An assay buffer (50 mM MOPS, pH 7.2, 35.5 mM triethanolamine, pH 7.2, 2 mM NADP^+, 2 mM MgCl2, 5 mM isocitrate, rotenone 1 mg/ml) and test samples were all prepared at 10× concentration. Enzymatic reactions necessary for the selection were conducted in a final volume of 1 ml at 25° C. in crystal cuvette. For use, the concentrated test samples were diluted with 3rd distilled water. The assay buffer, enzyme inhibitors, and isocitrate dehydrogenase, which all at 10× concentration, were maintained at low temperature, i.e., in ice.
A spectrophotometer was first subjected to null adjustment at 340 nm using the 10× assay buffer and 3rd distilled water. 100 μl of the sample was added, along with 100 μl of the 10× assay buffer, in a crystal cuvette, and mixed with 600 μl of 3rd distilled water. After the completion of the null adjustment, the sample cuvette was installed in the spectrophotometer, followed by adding 200 μl of isocitrate dehydrogenase and mixing the solution with the aid of a pipette. Changes in absorbance at 340 nm were monitored with time. In principle, an absorbance decreases faster in the cuvette containing a greater concentration of a sample inhibitory against the activity of the enzyme. Based on this principle, the quantification of the spectrophotometric data enabled the screening of inhibitors of isocitrate dehydrogenase.

3T3-L1 cells = experiment: Prevention of oil deposition in 3T3-L1 by isocitrate dehydrogenase inhibitor (Oil-Red-O); type: cell-based, mouse; conditions: cells treated with inhibitor vs no isocitrate inhibitors, FIG. 9
Description: After being treated with the isocitrate dehydrogenase inhibitors methyl isocitric acid and oxalomalic acid, 3T3-L1 cells, which remain undifferentiated, were examined for their differentiation to adipocytes. Effects of the isocitrate dehydrogenase inhibitors on fatty acid synthesis could be identified through the visualization using Oil-Red-O, a oil-specific dye.

rats = experiment: Restrictive effect of isocitrate dehydrogenase inhibitor on obesity in rats; type: in vivo, rat
Protocol: 26 weeks after birth, rats were compared for cellular lipid deposition when they were treated with no isocitrate dehydrogenase inhibitors and methyl isocitric acid.
A container suitable for receiving a rat was placed on a scale which was then subjected to null adjustment, after which a rat was carefully put in the container.
The livers and adipose tissues taken from inhibitor-administered rats and non-administered rats were homogenized in a buffer (0.32 M sucrose, 0.01 M Tris-Cl pH 7.4) and centrifuged at 3,000×g for 10 min. Again, the supernatant was centrifuged at 10,000×g for 15 min. A pure cytosolic fraction was obtained as the supernatant. The enzyme activity of IDPc was determined by measuring the change in the production amount of NADPH in a buffer (50 mM MOPS, pH 7.2, 35.5 mM triethanolamine, pH 7.2, 2 mM NADP^+, 2 mM MgCl2, 5 mM isocitrate, and rotenone 1 μg/ml) maintained at 25° C. Using a spectrophotometer, absorbance at 340 nm was measured for 2 min to quantify the amount of NADPH produced by the IDPc contained in the cytoplasmic protein, thereby determining the enzyme activity of IDPc. For the quantification of the enzyme, the amount which produced 1 μM of NADPH in 1 min was defined as 1 unit. Protein quantification was performed according to the Bradford assay.
In order to measure the blood triglyceride levels and total cholesterol, assay kits manufactured by Asan Pharmaceutics. Co. Ltd. were used. After being treated with an anti-coagulant, blood taken from the inhibitor-administered rats and non-administered rats was centrifuged to obtain sera. 10 μl of each of the sera was mixed with 1.5 ml of a triglyceride-assay kit [a solution of lipoproteinase 10800 U, glycerol kinase 5.4 U, peroxidase 135000 U, and L-α-glycerophosphate oxidase 160 U in 72 ml of N,N-bis(2-hydroxyethyl)-2-aminomethanesulfonic acid buffer] or 1.5 ml of a cholesterol enzyme-assay kit (a mixture of an enzyme solution (cholesterol esterase 20.5 KU/l, cholesterol oxidase 10.7 KU/l, and sodium hydroxide 1.81 g/l) and a buffer (potassium monophosphate 13.6 g/l, phenol 1.88 g/l) in the proportions of 1:1) and incubated at 37° C. for 5 min for reaction. In a microplate reader, a measurement was done by reading absorbance at 500 nm for cholesterol and at 540 nm for triglyceride, so as to quantify blood levels of triglyceride and total cholesterol. In connection to the quantification of triglyceride and cholesterol, there was utilized a standard curve which was obtained by applying the above procedure to various known concentrations of a standard solution.
A predetermined amount of the liver was taken from both the inhibitor-administered mice and non-administered mice and homogenized in 1 ml of CIAA (chloroform:isoamyl alcohol=2:1 v/v). 100 μl of the homogenate was dissolved in 200 μl of pure ethyl alcohol and mixed with 500 μl of each of the assay kits for triglyceride and cholesterol, manufactured by Asan Pharmaceutics, Co. Ltd., containing 0.5% Triton X-100 and 3 mM sodium cholate, followed by incubation at 37° C. for 10 min. After being added with 800 μl of water, each sample was measured for liver triglyceride and total cholesterol levels with the aid of a microplate reader in the same manner as in above. Likewise, the above procedure was applied to various known concentrations of a standard solution to acquire a standard curve which was used to quantify triglyceride and cholesterol levels in the liver.

[1] = system: NIH3T3 L1 cells into which only pLNCX vector was introduced; experiment: Differentiation of adipocytes and oil deposition according to concentration of NADPH (Oil-Red-O); type: cell-based, mouse
Protocol: To examine the influence of IDPc on the synthesis of fatty acids, the transfectant cell lines were cultured in 10% FBS-supplemented DMEM containing insulin 5 μg/ml, 0.5 mM 3-isobutyl-1-methylxanthine (IBMX, Sigma), 1 μM dexamethasone (DEX), and penicillin-streptomycin (Gibco BRL), each 50,000 units, for two days to increase the counts of the cells to a density of approximately 3×10^4 cells/cm^2. Thereafter, the cells were further cultured for 12 days in DMEM free of IBMX and DEX while the medium was refreshed every other day. Cell culturing was carried out in a CO2 incubator at 37° C. under a wet, 5% CO2 atmosphere.
After culturing, the cells were treated with Oil-Red-O, which specifically dyes oil, to observe oil deposits formed in adipocytes. In this connection, the medium was depleted, after which 10 ml of a cacodylate buffer (90 mM cacodylate, pH 7.2, 2% formaldehyde, 2.5% glutaraldehyde, 0.025% CaCl2, 5% sucrose) was added to the cells, which was then allowed to stand at 4° C. for 1 hour. After removal of the buffer, 5 ml of Oil-Red-O in 40% isopropanol was added to the cells and slowly mixed over 1 hour, followed by washing with 40% isopropanol.
The effect of NADPH, a metabolic product of IDPc, on the deposition of cellular oils was quantitatively measured with Oil-Red-O, a dye specific for lipids. […]

SMILES: NC(=O)c1cccnc1 [nicotine amide]
inhibitory activity against isocitrate dehydrogenase (isocitrate dehydrogenase): No inhibitory activity

SMILES: CC(O)(C(=O)O)C(CC(=O)O)C(=O)O (stereo not shown) [methyl isocitric acid]
inhibitory activity against isocitrate dehydrogenase (isocitrate dehydrogenase): strong inhibitory activity; also recorded: definite inhibitory activity | cellular oil deposits dyed with Oil-Red-O (3T3-L1 cells): reducing cellular oil deposits | arteriosclerosis index, lower (rats): 10 | body weight, inhibitor-administered vs non-administered rats (rats; 10-weeks old): No significant difference | weight of epididymal fat pad, lower compared to non-administered rats (rats; FIG. 10a): about 12% | weight of the liver, inhibitor-administered vs normal rats (rats; FIG. 10a): no difference | blood level of total cholesterol, lower compared to non-administered rats (rats; FIG. 10b): 11% | blood level of triglyceride, lower compared to non-administered rats (rats; FIG. 10b): 20% | high-density lipoproteins (HDL) level, higher compared to non-administered rats (rats; blood, FIG. 10c): 11%

SMILES: CC(NC(C)(C)C)C(=O)c1cccc(Cl)c1 (stereo not shown) [bupropion]
inhibitory activity against isocitrate dehydrogenase (isocitrate dehydrogenase): only a little inhibitory activity; also recorded: a little inhibitory effect

inhibitory activity against isocitrate dehydrogenase (isocitrate dehydrogenase): No inhibitory activity
SMILES: O=C(O)c1cccnc1 [nicotinic acid]

SMILES: NC(=O)C1=CN([C@@H]2O[C@H](COP(=O)(O)OP(=O)(O)OC[C@H]3O[C@@H](n4cnc5c(N)ncnc54)[C@H](OP(=O)(O)O)[C@@H]3O)[C@@H](O)[C@H]2O)C=CC1 [NADPH]
oil deposits formed within cells (Oil-Red-O) ([1]; NADPH added at 0 μM, 25 μM and 50 μM to the media during differentiation into adipocytes): accumulated greater amounts of oils; also recorded: larger intracellular lipid deposits | differentiation of adipocytes ([1]; differentiated in the presence of NADPH, increasing concentration): direct positive influence on the differentiation of adipocytes; also recorded: higher differentiation rates

SMILES: O=C(O)C(=O)C(C(=O)O)C(O)C(=O)O (stereo not shown) [oxalomalic acid]
inhibitory activity against isocitrate dehydrogenase (isocitrate dehydrogenase): strong inhibitory activity; also recorded: definite inhibitory activity | cellular oil deposits dyed with Oil-Red-O (3T3-L1 cells): reducing cellular oil deposits
